Entries after “also recorded” stand apart in the source; their conditions may differ.
Tests used:
[1] = tested on: NHLF cells; assay: Cytoprotection of cisplatin (CDDP)-treated NHLF cells (propidium iodide staining); type: cell-based
Procedure: (§1) A key outcome of Bach1 derepression and Nrf2 activation are the induction of cytoprotective genes. A method to test such cytoprotection is to assess the ability of a compound to protect normal human cells such as lung fibroblasts from toxicity due to cisplatin exposure. A model of cellular cytoprotection was established whereby normal human lung fibroblasts were treated with Bach1 modulators and then subsequently exposed to cisplatin. NHLF cells are very sensitive to cisplatin exposure; following a dose of 200 uM cisplatin, >90% of NHLF cells are propidium iodide positive, a measure of cell death.

[2] = tested on: HMOX1; assay: HMOX1 induction in NHLF cells in the cisplatin cytoprotection model; type: cell-based, human; details: compound 24 hours prior to cisplatin, FIG. 8
Procedure: as §1

[3] = tested on: NHLF cells; assay: ROS measurements (H2DCF-DA imaging); type: cell-based, human; details: 1 hr; for elevation of ROS production: relative to untreated controls, FIG. 3A; for ROS production (in words): cell-by-cell imaging, FIG. 3A/3B
Procedure: Secondary growth of NHLF cells were used for all assays. Cells were cultured as above. Cells were plated into 384-well BD-Optilux Plates at 2,000 cells/well and cultured overnight at 37° C. and 5% CO2. The following day, cell were washed and 2,7-dihydrodichlorofluorescin diacetate (H2DCF-DA), 10 μM ferric ammonium citrate (FAC), and Hoechst stain were added to cells for 30 min. The cells were washed once with PBS to remove any H2DCF-DA not taken up by cells. Test compounds were prepared in FBM-2 media at the desired concentrations. The plates and stain-treated cells were incubated with test compounds for 1 hr at 37° C. and 5% CO2. Following the incubation period, ROS generation was determined by imaging the cells on a GE INcell 1000 imager (Hoechst Ex. 360 Em. 535; H2DCF-DA 488 Ex. 480 Em. 535). ROS levels were determined and quantified using GE IN Cell Analyzer Software.
In addition to gene profiling, the requirement for ROS generation or chemical reactivity was tested. ROS generation was measured using an automated imaging technique. Compound 13 as well as two other compounds that were found in the screening set were tested in this experiment. Untreated NHLF cells, NHLF cells treated with the HMOX1 inducer CoPP (a negative control), and NHLF cells treated with curcumin or celestrol (positive controls) were included as controls. […] Further experiments were also conducted on chemical derivatives of Compound 13. In those experiments, all compounds tested were found not to induce an elevation of ROS levels in the cell (FIG. 3B). Thus, Compound 13 and related compounds represent a class of agents that elevate HMOX1 production without elevating ROS production.

[4] = tested on: HMOX1; assay: Effect of NAC on compound induction of HMOX gene expression; type: cell-based, human; details: NHLF cells pretreated with 5 mM NAC 1 hr, compound 6 h, FIG. 4
Procedure: NHLF cells were grown to 80% confluency and harvested by washing once with HEPES and then trypsinizing. Equal numbers (7×10^4 cells per well) of NHLF cells were plated in 96 well tissue culture (Corning) plates. Cells were incubated overnight in FGM-2 medium prior to exposure to compound. Cells were pretreated with 5 mM N-acetyl cysteine for 1 hr. Cells were treated with either DMSO or compound for 6 h. Preparation of cell lysates was carried out according to Quantigene Reagent system 2.0 protocol (Panomics). Heme oxygenase mRNA induction was detected from cell lysate using the Quantigene Plex 2.0 Assay Kit (Panomics) on the Luminex platform (BIO-RAD). Expression of GAPDH mRNA was used as the internal control for the Quantigen Plex 2.0 Assay. Heme oxygenase data represents the fold change, normalized to control values, above DMSO treated cells.
A further test of the hypothesis that Compound 13 induces HMOX1 with minimal alteration of cellular redox levels or chemical reactivity was carried out by treating cells with N-acetyl cysteine (NAC). This compound acts to restore cellular glutathione levels and thus prevent oxidative stress. The degree to which NAC can suppress HMOX1 induction is an indicator of the amount of chemical reactivity or ROS stress that a compound is imposing on the cell and thus activating phase II gene transcription. […] Coupled with the data shown in FIG. 3, it is concluded that Compound 13 induces HMOX1 with minimal elevation of ROS or NAC-sensitive chemical reactivity.

[5] = tested on: HMOX1; assay: mRNA expression (Quantigene Plex) in NHLF cells: HMOX1; type: cell-based, human; details: Table 6, 6 h, mRNA normalized to GAPDH, above DMSO treated cells
Procedure: (§2) Secondary growth of NHLF cells were used for all assays. Cell were thawed and then placed into culture in T225 flasks. The cells were grown to 80% confluency and harvested by washing once with HEPES buffered saline solution and then trypsinizing. Equal numbers (7×10^3 cells per well) of NHLF cells were plated in 96 well tissue culture plates (Corning). Cells were incubated overnight in FGM-2 medium prior to exposure to compound. Cells were treated with either DMSO or a compound as described below for 6 h. Preparation of cell lysates was carried out according to instructions using the Quantigene Reagent system 2.0 protocol (Panomics). mRNA induction was detected from cell lysate using the Quantigene Plex 2.0 Assay Kit (Panomics) on the Luminex platform (BIO-RAD). Expression of GAPDH mRNA was used as the internal control for the Quantigen Plex 2.0 Assay. The data in Tables 5 and 6 represents the fold change of target mRNA expression, normalized to control values, above DMSO treated cells.

[6] = tested on: NQO1; assay: mRNA expression (Quantigene Plex) in NHLF cells: NQO1; type: cell-based, human; details: Table 6, 6 h, mRNA normalized to GAPDH, above DMSO treated cells
Procedure: as §2

[7] = tested on: TXNRD1; assay: mRNA expression (Quantigene Plex) in NHLF cells: TXNRD1; type: cell-based, human; details: Table 6, 6 h, mRNA normalized to GAPDH, above DMSO treated cells
Procedure: as §2

[8] = tested on: HSPA6; assay: mRNA expression (Quantigene Plex) in NHLF cells: HSPA6; type: cell-based, human; details: Table 6, 6 h, mRNA normalized to GAPDH, above DMSO treated cells
Procedure: as §2

[9] = tested on: ICAM; assay: mRNA expression (Quantigene Plex) in NHLF cells: ICAM; type: cell-based, human; details: Table 6, 6 h, mRNA normalized to GAPDH, above DMSO treated cells
Procedure: as §2

[10] = tested on: GADD45A; assay: mRNA expression (Quantigene Plex) in NHLF cells: GADD45A; type: cell-based, human; details: Table 6, 6 h, mRNA normalized to GAPDH, above DMSO treated cells
Procedure: as §2

[11] = tested on: Keap1; assay: HMOX1 induction after Keap1 silencing (shRNA); type: cell-based, human; details: NHLF cells, FIG. 6
Procedure: Normal human lung fibroblasts were plated in a 12-well tissue culture dish at 16,000 cells/well and allowed to attach overnight. Regular medium was then replaced with 200 μl of fresh growth medium containing 8 μg/ml hexadimethrine bromide (polybrene). Lentiviral transduction particles were then added in the following amounts: Control shRNA (1.1×10^7 TU/ml, Sigma, cat# SHC002V), 15 μl for an MOI of 10; KEAP-1 shRNA (6.3×10^6 TU/ml, Sigma, cat# SHCLNV-TRCN0000046092), 63 μl for an MOI of 20. After 4 hours in the cell culture incubator, another 200 μl of growth medium was added on top of the original volume. Cells were replenished the next day with fresh complete growth medium and were allowed to recover for 24 hours, after which selection medium was applied (complete medium with 1 μg/ml puromycin).
Another method of testing the role of the Nrf2 regulatory pathway on compound activity is to determine the effect of silencing Keap1 on HMOX1 gene expression. It is known that deleting Keap1 will result in the induction of Nrf2 dependent genes but not, to any significant degree, HMOX1. The proposed explanation for this observation is that HMOX1 requires the concomitant derepression of Bach1 activity and that this event is more dependent on active processes (e.g., heme binding, changes in redox potential of the cell, phosphorylation of Bach1, etc.). We therefore tested the ability of Compound 13 and tool compounds to induce HMOX1 in the presence of silencing of Keap1 in normal human lung fibroblasts.
Normal human lung fibroblasts were tested with DMSO, CoPP, Compound 13, and two derivatives including Compound 4 and Compound 8. An electrophile, Compound 1, was also included in the test set. […] On the other hand, induction of HMOX1 by the electrophile Compound 1 was inhibited.

HMOX1 (fold induction) [5] | NQO1 (fold induction) [6] | TXNRD1 (fold induction) [7] | HSPA6 (fold induction) [8] | ICAM1 (fold induction) [9] | GADD45A (fold induction) [10] | Structure (SMILES) | ROS production (in words) [3] | further results
– | – | – | – | – | – | Cc1nc(Nc2nc3cc(C(=O)NCCOCCN)ccc3[nH]2)sc1C [Compound 11, 2-(4,5-Dimethyl-thiazol-2-ylamino)-1H-benzoimidazole-5-carboxylic acid [2-(2-amino-ethoxy)-ethyl]-amide] | – | protection against cisplatin toxicity ([1]; NHLF cells, compound 24 hours prior to cisplatin exposure, FIG. 8): failed to protect NHLF cells against cisplatin toxicity; also recorded: failed to protect cells from CDDP-mediated cytotoxicity; HMOX1 induction [2]: inactive HMOX1 inducers; also recorded: did not induce HMOX1
– | – | – | – | – | – | COc1cc(/C=C/C(=O)CC(=O)/C=C/c2ccc(O)c(OC)c2)ccc1O [curcumin, reference compound] | – | elevation of ROS production [3]: approximately 3 fold; effect of N-acetyl cysteine (NAC) on HMOX1 induction [4]: inhibited nearly fully by NAC; also recorded: fully suppressed in the presence of NAC
23.97 fold induction | 2.01 fold induction | 1.83 fold induction | 1.60 fold induction | 1.16 fold induction | 0.89 fold induction | COC(=O)[C@]12CCC(C)(C)CC1C1C(=O)C=C3[C@@]4(C)CC(C#N)C(=O)C(C)(C)[C@@H]4CC[C@@]3(C)[C@]1(C)CC2 (stereo partly drawn) [Compound 5, (4aS,6aR,6bS,8aR,12aS)-11-Cyano-2,2,6a,6b,9,9,12a-heptamethyl-10,14-dioxo-1,3,4,5,6,6a,6b,7,8,8a,9,10,11,12,12a,14, 14a,14b-octadecahydro-2H-picene-4a-carboxylic acid methyl ester, reference compound] | no demonstrable increase in ROS production | –
56.15 fold induction | 1.85 fold induction | 1.74 fold induction | 1.08 fold induction | 0.77 fold induction | 2.00 fold induction | COC(=O)c1ccc2[nH]c(Nc3nc4ccccc4s3)nc2c1 [Compound 4, 2-(Benzothiazol-2-ylamino)-1H-benzoimidazole-5-carboxylic acid methyl ester] | no demonstrable increase in ROS production | HMOX1 induction in the presence of Keap1 silencing [11]: unaffected in their ability to induce HMOX1 in the presence of Keap1 silencing; also recorded: behaves similarly to CoPP induction
– | – | – | – | – | – | CCOC(=O)/C=C/c1cnc2ccccc2c1S(=O)(=O)C1CCOC1C (stereo not drawn) [Compound 1, (E)-3-[4-(2-Methyl-tetrahydro-furan-3-sulfonyl)-quinolin-3-yl]-acrylic acid ethyl ester] | – | HMOX1 induction in the presence of Keap1 silencing [11]: inhibited
– | – | – | – | – | – | N.N.[Cl][Pt][Cl] [cisplatin, reference compound] | – | NHLF cells propidium iodide positive (cell death) ([1]; 200 uM cisplatin): > 90%
– | – | – | – | – | – | CC1=C(O)C(=O)C=C2C1=CC=C1[C@@]2(C)CC[C@@]2(C)[C@@H]3C[C@](C)(C(=O)O)CC[C@]3(C)CC[C@]12C [celestrol, reference compound] | – | elevation of ROS production [3]: ~2 fold; effect of N-acetyl cysteine (NAC) on HMOX1 induction [4]: inhibited nearly fully by NAC; also recorded: fully suppressed in the presence of NAC

Structure (SMILES) | HMOX1 (fold induction) [5] | NQO1 (fold induction) [6] | TXNRD1 (fold induction) [7] | HSPA6 (fold induction) [8] | ICAM1 (fold induction) [9] | GADD45A (fold induction) [10] | ROS production (in words) [3] | further results
CC1OCCC1S(=O)(=O)c1c(-c2ccc(C(F)(F)F)cc2)cnc2ccccc12 (stereo not drawn) [Compound 3, 4-(2-Methyl-tetrahydro-furan-3-sulfonyl)-3-(4-trifluoromethyl-phenyl)-quinoline] | 45.17 fold induction | 1.69 fold induction | 1.47 fold induction | 2.71 fold induction | 1.47 fold induction | 1.37 fold induction | no demonstrable increase in ROS production | –

Reference: US9707239B2, “Compounds that modulate oxidative stress” (vTv Therapeutics LLC, priority 2011, dated 2017)
